Measured values: patent US11096930B2, “Substituted imidazopyridine compounds as inhibitors of indoleamine 2,3-dioxygenase and/or tryptophan-2,3-dioxygenase” (IOMet Pharma Ltd., priority 2016, dated 2021)

Experiments:
IDO1 [1] = biological target: T1, IDO1 (Homo sapiens (Human), UniProt P14902); test: IDO1 HEK293 Cellular Assay; assay type: cell-based; details: HEK293 cells transfected with Flag-IDO1 vector; read-out: HEK293 Cell Assay, pIC50 (converted)
Procedure: IDO1 HEK293 Cellular Assay
Compounds to be tested were serially diluted in ten 3-fold steps in DMSO starting from 10 mM DMSO stocks. Compound dilutions or DMSO alone were then dispensed from the dilution plate into a Greiner black 384-well assay plate (catalog #781086) using an Echo 550 acoustic liquid handler (Labcyte).
HEK293 cell pellets were resuspended to 5×10^5 cells/mL in complete HEK293 culture media (89% DMEM, 10% FBS, 1% penicilllin/streptomycin). Suspended cells (2 mL) were dispensed into each well of a 6-well Corning plate (Catalog #3516). Cells were allowed to attach and were incubated for 20 hours at 37 degrees Celsius in a 5% CO2 incubator. Flag-IDO1 vector (Genscript True ORF Gold, 2 ug) in 150 uL of Opti-MEM medium was added to each well of a Corning 24 well plate (Cat #3527) and incubated for 5 minutes at room temperature. To each well of the 24-well plate was added 150 μL Lipofectamine 2000 (Gibco) and the plate incubated at room temperature for 20-30 minutes. To each well of attached cells in the 6-well plate, 250 μL of the transfection mix from the 24-well plate was gently added to each well and IDO1 protein was allowed to express for 24-30 hours at 37 degrees Celsius in a 5% CO2 incubator.
Media was removed from the cells which were then washed with 2 mL Dulbecco's phosphate-buffered saline (DPBS). After removal of DPBS, 0.5 mL of TrypLE (Gibco) was added and incubated at 5 minutes until cells lift from the surface of the wells. Complete HEK293 culture media (4 mL) was added to each well and cells were collected and pooled into a conical tube. Cells were pelleted at 200×g for 5 minutes and resuspended in an equal volume of complete DMEM medium. Cells were diluted to 4×10^5 cells per mL in complete HEK293 media. L-Tryptophan was added to added to give a final concentration of 200 μM. The diluted transfected cells (50 μL) or nontransfected cells (50 μL) were dispensed into wells of Greiner black 384-well assay plates (catalog #781086) containing previously diluted compounds. The plate is briefly mixed and centrifuged at 200×g for 10 seconds to collect cells at the bottom of the plate. Plates were covered and incubated for 20-24 hours at 37 degrees C. in a 5% CO2 incubator. […] The resulting fluoresence was measured in an Envision plate reader (Perkin Elmer) with a 400/25 nm excitation filter and an 510/20 nm emission filter.
The fluoresence intensity of each well was corrected for the background observed in wells with untransfected cells and was expressed as a fraction of the intensity observed in wells of IDO1 transfected cells and DMSO only. Potencies were calculated by linear least squares fit to the four parameter logistic IC50 equation.

IDO1 [2] = biological target: T1, IDO1; test: IDO1 Enzyme Assay; assay type: biochemical; details: HIS-tagged IDO1, fluorescence
Procedure: Compounds to be tested were serially diluted in ten 3-fold steps in DMSO starting from 10 mM DMSO stocks. Compound dilutions or DMSO alone were then dispensed from the dilution plate into a Greiner black 384-well assay plate (catalog #781086) using an Echo 555 acoustic liquid handler (Labcyte).
HIS-tagged IDO1 protein was recombinantly expressed in Escherichia coli using ZYP5052 autoinduction media supplemented with 500 μM delta aminolevulinic acid for 48 hours at 16 degrees Celsius. IDO1 protein was purified using Ni^2+-affinity resin and size exclusion chromatography. Purified protein was then diluted in assay buffer (50 mM Tris pH 7.0, 1% glycerol, 20 μM methylene blue, 0.05% Tween-20, 20 mM sodium ascorbate, 100 units/mL catalase to obtain a final IDO1 concentration of 40 nM. […] were dispensed to wells of the assay plate using a BioRAPTR liquid dispenser (Beckman Coulter). Assay plates containing compound and IDO1 enzyme were incubated at room temperature for 30 minutes. Afterwards, 10 μL of 400 μM tryptophan in assay buffer were added to each well of the assay plate using a BioRAPTR liquid dispenser. Plates were incubated at room temperature for 60 minutes and reactions were quenched by addition of 10 μL of 0.5 M methyl isonipecotate in dimethyl sulfoxide. Plates were sealed and incubated at 37 degrees Celsius for 4 hours or 50 degrees Celsius for 2 hours. The plates are allowed to cool and then centrifuged for 1 minute at 1000×g. The resulting fluoresence was measured in an Envision plate reader (Perkin Elmer) with a 400/25 nm excitation filter and an 510/20 nm emission filter.
Potencies were calculated by linear least squares fit to the four parameter logistic IC50 equation.

T1 sequence (P14902 whole entry): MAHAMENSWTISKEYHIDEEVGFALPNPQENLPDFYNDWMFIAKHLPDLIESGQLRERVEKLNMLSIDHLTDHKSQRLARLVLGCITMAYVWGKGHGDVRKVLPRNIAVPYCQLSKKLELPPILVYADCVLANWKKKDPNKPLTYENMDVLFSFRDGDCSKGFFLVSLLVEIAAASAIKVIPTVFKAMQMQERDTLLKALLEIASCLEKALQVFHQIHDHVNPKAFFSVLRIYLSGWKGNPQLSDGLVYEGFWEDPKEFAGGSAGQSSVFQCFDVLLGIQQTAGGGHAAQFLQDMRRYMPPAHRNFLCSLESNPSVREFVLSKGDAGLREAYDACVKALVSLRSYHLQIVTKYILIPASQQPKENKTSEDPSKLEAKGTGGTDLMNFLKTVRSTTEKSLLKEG

SMILES | IC50 (IDO1 [1]) [µM] | IDO1 Enzyme Assay, pIC50 (IDO1 [2])
O=C1OCCC12CCN(c1cc(C(F)(F)F)cc3cncn13)CC2 [Example 17, 8-(7-(trifluoromethyl)imidazo[1,5-a]pyridin-5-yl)-2-oxa-8-azaspiro[4.5]decan-1-one] | 1.58 | 5.7
O=C1NCCC12CCN(c1cc(C(F)(F)F)cc3cncn13)CC2 [Example 19, 8-(7-(trifluoromethyl)imidazo[1,5-a]pyridin-5-yl)-2,8-diazaspiro[4.5]decan-1-one] | 6.31 | 5.1
CC1=NC2(CCN(c3cc(C(F)(F)F)cc4cncn34)CC2)C(=O)N1 [Example 18, 2-methyl-8-(7-(trifluoromethyl)imidazo[1,5-a]pyridin-5-yl)-1,3,8-triazaspiro[4.5]dec-1-en-4-one] | 1.58 | 5.7
CC(=O)N1CCC2(CC1)CCN(c1cc(C(F)(F)F)cc3cncn13)CC2 [Example 20, 1-(9-(7-(Trifluoromethyl)imidazo[1,5-a]pyridin-5-yl)-3,9-diazaspiro[5.5]undecan-3-yl)ethan-1-one] | 2 | 5.2
